Conditions: a range is the spread between reports

Structure (SMILES) | melting point [°C]
CC#CCCC | -90 to -89.6
CC(Br)C(Br)C(=O)O (stereo unspecified) | 85 to 87
O=[N+]([O-])c1ccccc1 | 5 to 6
CCCCCCCCCCCCCC(=O)OCC | 12 to 12.3
C=C(C)CC | -138 to -137
Nc1cccc(C(F)(F)F)c1 | 5.5 to 6
Clc1ccc(C(c2ccc(Cl)cc2)C(Cl)Cl)cc1 | 109 to 110
CC(C)(O)C(=O)O | 79 to 82.5
CC1CC=CC1 | -161
O=C(Cl)c1ccccc1F | 4 to 5
CCCCCCCCCCCCCCCO | 45.5 to 46
Nc1ccc2c(c1)Cc1ccccc1-2 | 128 to 129
Oc1c(Br)cccc1Br | 55 to 56.5
C=CCCCCCCCCCCCCCCCCCC | 28.5 to 29
CCCCOC=O | -92 to -91.5
CC1CCC(=O)CC1 | -41 to -40.6

Structure (SMILES) | melting point [°C]
O=C(O)c1cc([N+](=O)[O-])cc([N+](=O)[O-])c1O | 170 to 171
CCN1CCNC(=O)C1=O | 108 to 110
CCN1CCOCC1 | -64 to -63
CCOCCOC(C)=O | -62 to -61
N#CCC#N | 32 to 34
NC1CCCC1 | -85.7 to -82.7
O=C(O)C(F)(F)F | -15.2 to -15
O=[N+]([O-])c1cc(Cl)c(Cl)c(Cl)c1 | 70 to 72.5
CNC(=O)Oc1cccc2c1OC(C)(C)C2 | 151 to 152
C=CC(CC)CC | -128 to -127
O=C(O)COc1ccc(Cl)cc1 | 159 to 164
CC1CC1 | -177
O=C1CC(=O)NC(=S)N1 | 234 to 235
CC(C)(C)CC(C)(C)C | -67 to -66.5
c1ccoc1 | -85.6 to -85
CN=C=S | 32 to 36

Other lines, results leading:

melting point [°C] | Structure (SMILES)
215 to 218 | c1ccc2cc3ccccc3cc2c1
-7.4 to -7 | CC(C)c1cc(C(C)C)cc(C(C)C)c1
51.5 to 52 | Cc1ccc(O)c(C(C)(C)C)c1
67 to 71 | O=C(Oc1ccccc1)c1ccccc1
35 to 40 | c1cc2c3c(c1)CCCN3CCC2
19 to 20 | SCc1ccc(Cl)cc1
136 | CCC(C)(C)C(=O)OC1CC(C)C=C2C=CC(C)C(CCC3CC(O)CC(=O)O3)C21 (stereo unspecified)
114 to 115 | COc1cc(CO)ccc1O
104 to 105 | CC(=O)Nc1cccc(C(F)(F)F)c1
70 to 72.5 | CC1=CC(=O)C=C(C)C1=O
50 to 51 | O=Cc1ccnc2ccccc12
78 to 80 | COC(=O)c1cccc([N+](=O)[O-])c1
36.5 to 38 | O=C1CCOc2ccccc21
5 to 7.3 | c1ccc(C2CCCCC2)cc1
245 to 247 | O=Cc1ccc(C(=O)O)cc1
28 to 29 | CCOc1ccc(I)cc1
200 to 202 | Nc1ccc(S(=O)(=O)Nc2nccs2)cc1

melting point [°C] | Structure (SMILES)
174 to 175 | Cc1ccc(N(CC2=NCCN2)c2cccc(O)c2)cc1
108 to 109 | c1ccc2nc3ccccc3cc2c1
195 to 196 | COc1cc(C(=O)O)cc(O)c1OC
163 to 166 | COc1ccc2nc(N)sc2c1
96.5 to 98 | CCC(=O)c1cc(O)ccc1O
112 to 113 | COc1cc(C=O)cc(OC)c1O
83 to 88 | CC(=O)Nc1cccc(F)c1
117 to 118 | COc1ccc([N+](=O)[O-])cc1N
99 to 102 | c1ccc(COc2ccc3[nH]ccc3c2)cc1
33 to 36 | O=[N+]([O-])c1ccc(F)cc1O
105 to 106 | Oc1ccccc1O
263 to 268 | Nc1ccc(N)c2c1C(=O)c1ccccc1C2=O
35 to 39 | O=C(C=Cc1ccccc1)OCc1ccccc1
87 to 89 | CC(=O)Nc1ccccc1Cl
50 to 55 | O=C(/C=C1\Cc2ccccc21)c1ccccc1
82 to 87 | CCOC(=O)c1cc(C)n[nH]1
129 to 131 | O=C(O)CCc1ccc(O)cc1

Source: a melting point compilation (Tetko et al.)
